# Assay results: patent publication US8835458B2 (Hanmi Science Co., Ltd, priority 2010, dated 2014)
# Where a name gives a salt, the structure may show the parent alone. Read-outs that look alike come from different tables or passages of the source.
# Legend:
# [1] = system: MDA-MB-231 breast cancer cell lines; assay: Evaluation of inhibition on cell growth (MTS); type: cell-based; details: Homo sapiens, MDA-MB-231, 120 hours
# Method: (§1) MDA-MB-231 breast cancer cell lines (ATCC #HTB-26) and BxPC-3 pancreas cancer cell lines (ATCC #CRL 1687), which have been reported to express XIAP, were obtained from ATCC (American type culture collection; Rockville, Md.). MDA-MB-231 cell lines were incubated in L-15 medium supplemented with 10% FBS and 1% penicillin/streptomycin (Gibco BRL) at a T-75 cm^2 growth flask. In addition, BxPC-3 cell lines were incubated in RPMI medium supplemented with 10% FBS and 1% penicillin/streptomycin. For experiments of toxicity to normal cells, fibroblasts Hs27 (ATCC #CRL 1634) and Balb/c3t3 (ATCC #CCL 163) were used. The various cell lines were transferred into 96-well plates at a density of 3,000˜5,000 cells/100 μL, and cultured for 24 hours under conditions of 37° C., 5% CO2, 95% air, and 100% relative humidity (MDA-MB-231 cells were cultured under atmospheric conditions). The cells were treated with 10 μM˜0.1 nM of test compounds, and MDA-MB-231, BxPC-3, and normal cell lines were cultured for 120, 96, and 72 hours, respectively.
# (§2) Cell viabilities of MDA-MB-231 cell lines were measured at an absorbance of 490 nm using CellTiter 96™ AQueous One Solution Cell proliferation Assay (MTS, Promega), and cell viabilities of BxPC-3 and normal cell lines were measured by fixing cells with 10% TCA (trichloroacetic acid), staining with SRB (sulforhodamine B), and measuring at 540 nm. From the values, GI50 values in which test compounds reduce the growth of cancer cells by 50% were calculated. The growth rates of cancer cells were calculated from following Equation 1 or 2. [(Ti−Tz)/(C−Tz)]×100 (for Ti>=Tz) [Equation 1] [(Ti−Tz)/Tz]×100 (for Ti<Tz) [Equation 2] In Equations 1 and 2, Tz refers to a density of untreated cells, which is an absorbance in 0% cell growth groups. C refers to a density of cells cultured by adding only medium, and Ti refers to a density of cells treated with test compounds.
# (§3) GI50 value is the concentration of a test compound when the value of Equation 1 is 50, which indicates the concentration of test compound required to inhibit the cancer cells by 50%. On each measurement, test compounds were compared with a control.
# (§4) The activity value of each compound (GI50 value) was shown in Table 5, and an IAP antagonist was used as a control.
# (§5) In the activity measurement on MDA-MB-231 breast cancer cell lines, the values were represented as “***” for 100 nM or less, “**” for over 100 nM to below 1,000 nM, and “*” for 1,000 nM or more. In the measurement on normal cell lines, Balb/C and Hs27, the values were represented as “+++” for 10,000 nM or more, “++” for over 5,000 nM to below 10,000 nM, and “+” for 5,000 nM or less.
# [2] = Toxicity to normal cells (SRB); type: cell-based, mouse; details: mouse, Balb/c3t3 fibroblasts (normal cell line), read-out: BalB/C (GI50)
# Method: as §1, §2, §3, §4, §5
# [3] = Toxicity to normal cells (SRB); type: cell-based, human; details: human, Hs27 fibroblasts (normal cell line)
# Method: as §1, §2, §3, §4, §5
Compound,GI50 [1] [µM],GI50 at 72 h [2] [µM],GI50 at 72 h [3] [µM]
"CN[C@@H](C)C(=O)N[C@H](C(=O)N1CC[C@H]1C(=O)Nc1cc2c(Nc3ccc(F)c(Cl)c3F)ncnc2cc1OC)C(C)(C)C [Example 20, (S)—N-(4-(3-chloro-2,4-difluorophenylamino)-7-methoxyquinazolin-6-yl)-1-((S)-3,3-dimethyl-2-((S)-2-(methylamino)propanamido)butanoyl)azetidine-2-carboxamide hydrochloride]",0.1 to 1,> 10,> 10
"CN[C@@H](C)C(=O)N[C@H](C(=O)N1CCC[C@H]1C(=O)Nc1cc2c(N)ncnc2cc1OC)C(C)(C)C [Example 36, (S)—N-(4-amino-7-methoxyquinazolin-6-yl)-1-((S)-3,3-dimethyl-2-((S)-2-(methylamino)propanamido)butanoyl)pyrrolidine-2-carboxamide]",0.1 to 1,> 10,> 10
"CN[C@@H](C)C(=O)N[C@H](C(=O)N1CCC[C@H]1C(=O)Nc1cc2c(Nc3ccccc3Br)ncnc2cc1OC)C(C)(C)C [Example 22, (S)—N-(4-(2-bromophenylamino)-7-methoxyquinazolin-6-yl)-1-((S)-3,3-dimethyl-2-((S)-2-(methylamino)propanamido)butanoyl)pyrrolidine-2-carboxamide hydrochloride]",≤ 0.1,> 10,> 10
"CN[C@@H](C)C(=O)N[C@H](C(=O)N1CCC[C@H]1C(=O)Nc1cc2c(Nc3ccc(OCc4cccc(F)c4)c(Cl)c3)ncnc2cc1OC)C(C)(C)C [Example 37, (S)—N-(4-(3-chloro-4-(3-fluorobenzyloxy)phenylamino)-7-methoxyquinazolin-6-yl)-1-((S)-3,3-dimethyl-2-((S)-2-(methylamino)propanamido)butanoyl)pyrrolidine-2-carboxamide hydrochloride]",≤ 0.1,> 10,> 10
"CN[C@@H](C)C(=O)N[C@H](C(=O)N1CCC[C@H]1C(=O)Nc1cc2c(Nc3ccc(F)cc3F)ncnc2cc1OC)C(C)(C)C [Example 28, (S)—N-(4-(2,4-difluorophenylamino)-7-methoxyquinazolin-6-yl)-1-((S)-3,3-dimethyl-2-((S)-2-(methylamino)propanamido)butanoyl)pyrrolidine-2-carboxamide hydrochloride]",≤ 0.1,> 10,> 10
"CN[C@@H](C)C(=O)N[C@H](C(=O)N1CCC[C@H]1C(=O)Nc1cc2c(N(C)c3ccccc3)ncnc2cc1OC)C(C)(C)C [Example 31, (S)-1-((S)-3,3-dimethyl-2-((S)-2-(methylamino)propanamido)butanoyl)-N-(7-methoxy-4-(methyl(phenyl)amino)quinazolin-6-yl)pyrrolidine-2-carboxamide hydrochloride]",≤ 0.1,> 10,> 10
"CN[C@@H](C)C(=O)N[C@H](C(=O)N1CCC[C@H]1C(=O)Nc1cc2c(Nc3ccc(Cl)cc3Cl)ncnc2cc1OC)C(C)(C)C [Example 58, (S)—N-(4-(2,4-dichlorophenylamino)-7-methoxyquinazolin-6-yl)-1-((S)-3,3-dimethyl-2-((S)-2-(methylamino)propanamido)butanoyl)pyrrolidine-2-carboxamide hydrochloride]",≤ 0.1,> 10,> 10
"CN[C@@H](C)C(=O)N[C@H](C(=O)N1CCC[C@H]1C(=O)Nc1cc2c(Nc3cccc4ncccc34)ncnc2cc1OC)C(C)(C)C [Example 63, (S)-1-((S)-3,3-dimethyl-2-((S)-2-(methylamino)propanamido)butanoyl)-N-(7-methoxy-4-(quinoline-5-ylamino)quinazolin-6-yl)pyrrolidine-2-carboxamide hydrochloride]",≤ 0.1,> 10,> 10
"CN[C@@H](C)C(=O)N[C@H](C(=O)N1CCC[C@H]1C(=O)Nc1cc2c(Nc3ccc(N4CCOCC4)cc3)ncnc2cc1OC)C(C)(C)C [Example 90, (S)-1-((S)-3,3-dimethyl-((S)-2-(methylamino)propanamido)butanoyl)-N-(7-methoxy-4-((4-morpholinophenyl)amino)quinazolin-6-yl)pyrrolidine-2-carboxamide hydrochloride]",≤ 0.1,,> 10
"CN[C@@H](C)C(=O)N[C@H](C(=O)N1CCC[C@H]1C(=O)Nc1cc2c(Nc3ccc(S(=O)(=O)N4CCN(C)CC4)cc3)ncnc2cc1OC)C(C)(C)C [Example 108, (S)-1-((S)-3,3-dimethyl-2-((S)-2-(methylamino)propanamido)butanoyl)-N-(7-methoxy-4-((4-((4-methylpiperazin-1-yl)sulfonyl)phenyl)amino)quinazolin-6-yl)pyrrolidine-2-carboxamide hydrochloride]",≤ 0.1,,> 10

# The next lines start with results.
GI50 [1] [µM],Compound,GI50 at 72 h [2] [µM],GI50 at 72 h [3] [µM]
≤ 0.1,"CN[C@@H](C)C(=O)N[C@H](C(=O)N1C[C@H](OCc2ccccc2)C[C@H]1C(=O)Nc1cc2c(Nc3ccc(F)c(Cl)c3F)ncnc2cc1OC)C(C)(C)C [Example 46, (2S,4R)-4-(benzyloxy)-N-(4-(3-chloro-2,4-difluorophenylamino)-7-methoxyquinazolin-6-yl)-1-((S)-3,3-dimethyl-2-((S)-2-(methylamino)propanamido)butanoyl)pyrrolidine-2-carboxamide hydrochloride]",> 10,> 10
≤ 0.1,"CN[C@@H](C)C(=O)N[C@H](C(=O)N1CCC[C@H]1C(=O)Nc1cc2c(Nc3ccc(Oc4ccccc4)cc3)ncnc2cc1OC)C(C)(C)C [Example 40, (S)-1-((S)-3,3-dimethyl-2-((S)-2-(methylamino)propanamido)butanoyl)-N-(7-methoxy-4-(4-phenoxyphenylamino)quinazolin-6-yl)pyrrolidine-2-carboxamide hydrochloride]",> 10,> 10
≤ 0.1,"CN[C@@H](C)C(=O)N[C@H](C(=O)N1CCC[C@H]1C(=O)Nc1cc2c(N3CCCc4ccccc43)ncnc2cc1OC)C(C)(C)C [Example 50, (S)—N-(4-(3,4-dihydroquinoline-1(2H)-yl)-7-methoxyquinazolin-6-yl)-1-((S)-3,3-dimethyl-2-((S)-2-(methylamino)propanamido)butanoyl)pyrrolidine-2-carboxamide hydrochloride]",> 10,> 10
≤ 0.1,"CN[C@@H](C)C(=O)N[C@H](C(=O)N1CCC[C@H]1C(=O)Nc1cc2c(NCc3ccc(F)cc3F)ncnc2cc1OC)C(C)(C)C [Example 35, (S)—N-(4-(2,4-difluorobenzylamino)-7-methoxyquinazolin-6-yl)-1-((S)-3,3-dimethyl-2-((S)-2-(methylamino)propanamido)butanoyl)pyrrolidine-2-carboxamide hydrochloride]",> 10,> 10
≤ 0.1,"CCN1CCN(c2ccc(Nc3ncnc4cc(OC)c(NC(=O)[C@@H]5CCCN5C(=O)[C@@H](NC(=O)[C@H](C)NC)C(C)(C)C)cc34)cc2F)CC1 [Example 71, (S)-1-((S)-3,3-dimethyl-2-((S)-2-(methylamino)propanamido)butanoyl)-N-(4-(4-(4-ethylpiperazin-1-yl)-3-fluorophenylamino)-7-methoxyquinazolin-6-yl)pyrrolidine-2-carboxamide dihydrochloride]",> 10,> 10
≤ 0.1,"CN[C@@H](C)C(=O)N[C@H](C(=O)N1CCC[C@H]1C(=O)Nc1cc2c(Nc3ccc(N4CCS(=O)(=O)CC4)cc3)ncnc2cc1OC)C(C)(C)C [Example 72, (S)—N-(4-((1,1-dioxide-4-thiomorpholinyl)phenylamino)-7-methoxyquinazolin-6-yl)-1-((S)-3,3-dimethyl-2-((S)-2-(methylamino)propanamido)butanoyl)pyrrolidine-2-carboxamide]",> 10,> 10
